Literature values in US20200146297A1, “FAST SYMPTOM HERBICIDAL COMPOSITIONS CONTAINING AN ORGANO[…], BI[…] A[…] SURFACTANT” (Monsanto Technology LLC, priority 2016, published 2020).

Assays:
[1] = known to decompose
plant = details: after treatment

Compound	pH at which decomposition occurs [1]	time until visual symptoms of treatment appear (plant)
c1cc[n+]2c(c1)-c1cccc[n+]1CC2 [Diquat dibromide]	greater than 7	
O=C(O)CNCP(=O)(O)O [glyphosate, N-(phosphonomethyl)glycine]		one week or more
